Drawing on publication PMC4503954, “The mitochondrial malate dehydrogenase 1 gene GhmMDH1 is involved in plant and root growth under phosphorus deficiency conditions in cotton” (Scientific Reports, 2015), this text covers Km for four compounds.

The test concerns the target T1, GhmMDH1 (Gossypium hirsutum, UniProt A0A1U8J4P3).
T1 construct: gene LOC107903665; N-terminus […]; (27-residue mitochondrial target signal)
In words: NADH/NAD+ absorbance at […] nm, nonlinear regression. It is filed as biochemical. Conditions: 50 mM MOPS pH 7.5, 25 °C.

T1 sequence (A0A1U8J4P3 entry or part of it): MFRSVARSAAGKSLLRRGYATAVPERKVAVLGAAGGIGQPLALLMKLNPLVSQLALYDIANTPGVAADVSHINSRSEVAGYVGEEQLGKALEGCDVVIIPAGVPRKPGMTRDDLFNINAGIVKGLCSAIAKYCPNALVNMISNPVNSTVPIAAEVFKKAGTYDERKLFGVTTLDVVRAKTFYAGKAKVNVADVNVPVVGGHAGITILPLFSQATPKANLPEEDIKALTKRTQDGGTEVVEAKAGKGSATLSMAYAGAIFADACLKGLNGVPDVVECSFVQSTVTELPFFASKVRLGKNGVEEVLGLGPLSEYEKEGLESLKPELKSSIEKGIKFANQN

For the compound `O=C(O)C[C@H](O)C(=O)O` [Malate], the Km (1.0 mM NAD+) was found to be 2910 ± 290 µM.

With `O=C(O)CC(=O)C(=O)O` [OAA], the Km (0.2 mM NADH) worked out at 132 ± 25 µM. As to `NC(=O)C1=CN([C@@H]2O[C@H](COP(=O)(O)OP(=O)(O)OC[C@H]3O[C@@H](n4cnc5c(N)ncnc54)[C@H](O)[C@@H]3O)[C@@H](O)[C@H]2O)C=CC1` [NADH], the Michaelis constant (Km) (0.5 mM OAA) came out at 107 ± 19 µM.

With `NC(=O)c1ccc[n+]([C@@H]2O[C@H](COP(=O)(O)OP(=O)(O)OC[C@H]3O[C@@H](n4cnc5c(N)ncnc54)[C@H](O)[C@@H]3O)[C@@H](O)[C@H]2O)c1` [NAD^+], the Michaelis-Menten constant (Km) (50 mM L-malate) came out at 766 ± 84 µM.
